The values below come from patent publication US20130059896A1, “5-(1H-PYRAZOL-5-YL)THIAZOLE-BASED COMPOUNDS FOR THE TREATMENT OF DISEASES AND DISORDERS OF THE EYE” (priority 2010, published 2013).

The test system of the experiment is wild-type C57:129 F2 hybrid mice. Kind of experiment: Dexamethasone-induced ocular hypertension model (IOP by TonoLab tonometer). The experiment is classed as in vivo, mouse. On the procedure: Twenty eight day mouse Alzet mini-osmotic pumps (DURECT Corp., Cupertino, Calif.) were filled with a solution of water soluble dexamethasone (dex) in PBS (Sigma, St. Louis, Mo.) so that they would release roughly 0.1 mg of dex per day. Once the pumps were filled with the dex, the pumps were allowed to equilibrate in PBS at 37° C. for 60 hours. The equilibrated pumps were surgically placed subcutaneously on the backs of wild-type C57:129 F2 hybrid mice weighing between 25 and 35 grams. Surgical incisions were sutured with 5-0 braided silk (ROBOZ, Gaithersburg, Md.) and treated with antibiotic ointment throughout the entire duration of study. Surgical incisions were glued with TissueMend II (Webster Veterinary, Houston, Tex.). Analgesic (buprenorphine) was given through IP injection the day of surgery and 24 hours after surgery. Intraocular pressure (IOP) was measured on these mice using a TonoLab (Colonial Medical Supply Co., Franconia, N.H.) tonometer. Mice were mildly sedated with isoflurane and topically anesthetized with 0.5% proparacaine (Akorn, Buffalo Grove, Ill.) before IOP measurements were taken. Baseline IOP was measured 1 day prior to mini-pump implantation. After mini-pump implantation, IOP measurements were taken 2-3 times per week for 4 weeks. Pharmacology studies with potential ocular hypotensive compounds were performed between 21 and 28 days after implantation.

On to `O=C(C[C@@H]1CCCN1)Nc1ncc(-c2cc(C(F)F)nn2-c2c(Cl)cccc2Cl)s1` [Compound 9, (S)—N-(5-(1-(2,6-dichlorophenyl)-3-(difluoromethyl)-1H-pyrazol-5-yl)thiazol-2-yl)-2-(pyrrolidin-2-yl)acetamide], for which the “Average changes in IOP measured from time of dosing” value reads like this: (3 μg/eye, 0 hr) 0.00 (0.0); (3 μg/eye, 2 hr) −4.10 (2.6); (3 μg/eye, 4 hr) −3.81 (3.8); (3 μg/eye, 6 hr) −3.19 (3.2); (15 μg/eye, 0 hr) 0.00 (0.0); (15 μg/eye, 2 hr) −4.25 (2.7). Also, the “Average changes in IOP measured from time of dosing” value was −4.88 (5.1) (15 μg/eye, 4 hr); −4.88 (4.2) (15 μg/eye, 6 hr); 0.00 (0.0) (30 μg/eye, 0 hr); −3.33 (4.2) (30 μg/eye, 2 hr); −2.86 (1.1) (30 μg/eye, 4 hr); −2.29 (2.2) (30 μg/eye, 6 hr). Moreover, the “Effect in the ocular hypertension model (FIG. 1)” value (dose response, FIG. 1) was “dose dependent effect”.
